Data reported in patent US7981896B2 (Athersys, Inc., priority 2006, dated 2011).
pKi: −log10 of the molar value.

Target: T1, human histamine H3 receptor (Homo sapiens, UniProt Q9Y5N1)
T1 construct: endogenous in cells; host or cells: HT1080-Gqαi5 RAGE clone (RAGE-H3), human fibrosarcoma line; integrated RAGE vector pFG8-HH3 supplies exon 1, the cell's own gene supplies the other exons
Test: Competition radioligand binding assay with [125I]iodoproxyfan on membranes of RAGE-H3 (HT1080-Gqαi5) cells expressing human H3 receptor
Conditions: ~0.15 nM [125I]iodoproxyfan, 1.5 hrs at room temperature, head does not name the quantity (apparent Ki by Cheng-Prussof)
Experimental: Representative compounds of the present invention that were prepared by the procedures of Examples 1-83 were evaluated in binding assays against cells expressing human H3 receptor by the following procedure.
[^125I]iodoproxyfan (2000 Ci/mmol) was obtained from Amersham Bioscience (Piscataway, N.J.). All other chemicals were either from Sigma-Aldrich (St. Louis, Mo.) or Tocris Cookson Inc. (Ellisville, Mo.).
The human histamine H3 receptor was stably expressed in HT1080 cells containing the chimeric G-protein, Gq[…]i5 (Coward et al., Anal Biochem 1999; 270:242-8). HT1080-Gqαi5 cells were grown in alpha-modified MEM containing 10% fetal bovine serum and 7 μg/ml blasticidin at 37° C. in 5% CO2/95% atmosphere. Cells (4.8×10^9) were irradiated with 50 rads from a ^137Cs source and the pFG8-HH3 RAGE (Random Activation of Gene Expression; see Harrington et al., Nature Biotechnology. 2001; 19:440-45) vector was subsequently integrated into the cells via electroporation (250V, 600 μF, 50Ω). The RAGE vector pFG8-HH3 contained cDNA sequence coding for the first exon (83 amino acids) of human H3 receptor. After electroporation, cells were plated in T75 flasks and grown in alpha-modified MEM. The culture medium was replaced 48 hrs after electroporation with alpha-modified MEM, 10% fetal bovine serum, 500 μg/ml hygromycin B and 3 μg/ml puromycin. Medium was replaced every four days during cell expansion. To identify RAGE activated cells expressing the H3 receptor, pools of approximately 10,000 colonies (5×10^7-1.5×10^8 cells total) were screened by PCR for the desired gene product (using primers specific to the RAGE vector and exon 2 of the H3 receptor). […] Positive 100 cells/well pools were identified by PCR, confirmed by sequencing, and subsequently subcloned to 0.8 cells/well. Once clones expressing the H3 receptor were identified by PCR analysis, assays (FLIPR or radioligand binding) were performed to confirm that the activated gene produced functional protein. The protein expression in the initial clones obtained from the RAGE library was increased by growth in the presence of methotrexate. Since the integrated RAGE vector contains the DHFR gene, such treatment selects for cells that have amplified the genetic locus containing the RAGE insert. Subclones obtained after methotrexate amplification were tested for functional activity in FLIPR assays to identify the clone that was most suitable for HTS. The final HT1080-Gqαi5 RAGE clone (RAGE-H3) expressing the human histamine H3 receptor was grown in alpha-modified MEM containing 10% fetal bovine serum, 3 μg/ml puromycin, 500 μg/ml hygromycin B, 3.2 μM methotrexate at 37° C. in 5% CO2/95% atmosphere.
RAGE-H3 cells (10^9) were washed twice with cold PBS, scraped off the plates, and centrifuged at 1000×g for 5 minutes. Cells were resuspended in ice-cold 10 mM Tris HCl, pH 7.4, containing 5 mM EDTA and protease inhibitor cocktail tablets (Roche Molecular Biochemicals). After incubating on ice for 10 min, the cells were homogenized with a dounce homogenizer or a polytron tissue grinder, and centrifuged at 1000×g for 10 min at 4° C. The resulting supernatant was centrifuged at 32,000×g for 30 min at 4° C. The membrane pellets were resuspended in 50 mM Tris HCl, pH 7.4, and stored at −80° C. until use. Protein concentration was determined by the Bradford method (Bio-Rad Laboratories, CA).
Binding assays were carried out in 96-well polypropylene plates in 50 mM Tris HCl, pH 7.4, containing 1 mM EDTA. Reaction mixtures contained 100 μl of membrane suspension, 50 μl of 4% DMSO, and 50 μl of increasing amounts of [^125I]iodoproxyfan (final concentration 0.0005-1.8 nM for human H3 receptor saturation binding assay). Nonspecific binding was defined by adding 10 μM clobenpropit to the reaction mixtures. […]

T1 sequence (Q9Y5N1 whole entry): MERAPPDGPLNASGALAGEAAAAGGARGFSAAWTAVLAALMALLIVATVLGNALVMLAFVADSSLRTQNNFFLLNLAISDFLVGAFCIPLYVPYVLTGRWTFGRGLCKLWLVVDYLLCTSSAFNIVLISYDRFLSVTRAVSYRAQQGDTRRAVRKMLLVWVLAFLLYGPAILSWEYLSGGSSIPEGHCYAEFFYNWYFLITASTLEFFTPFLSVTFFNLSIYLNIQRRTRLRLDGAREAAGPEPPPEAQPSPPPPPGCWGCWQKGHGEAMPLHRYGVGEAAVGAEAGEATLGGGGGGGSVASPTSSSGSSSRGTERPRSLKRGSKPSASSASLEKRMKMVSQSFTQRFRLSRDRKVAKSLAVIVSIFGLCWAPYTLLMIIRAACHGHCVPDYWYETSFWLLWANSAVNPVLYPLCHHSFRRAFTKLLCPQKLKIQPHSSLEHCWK

Compound	pKi
Cc1cc(C(=O)NC2CCCCC2)n(-c2ccc(OC3CCN(C4CCC4)CC3)cc2)n1 [Example 13, 2-[4-(1-Cyclobutylpiperidin-4-yloxy)phenyl]-5-methyl-2H-pyrazole-3-carboxylic acid cyclohexylamide]	> 8.00
Cc1cc(C(C)(C)C)nn1-c1ccc(OCCCN2CCCCC2)cc1 [Example 27, 3-tert-Butyl-5-methyl-1-[4-(3-piperidin-1-ylpropoxy)-phenyl]-1H-pyrazole]	> 8.00
Cc1cc(-c2ccccc2)n(-c2ccc(OCCCN3CCCC3)cc2)n1 [Example 41]	> 8.00
Cc1cc(C(=O)NC2CCCCC2)n(-c2ccc(OC3CCN(C4CCCC4)CC3)cc2)n1 [Example 10, 2-[4-(1-Cyclopentyl-piperidin-4-yloxy)phenyl]-5-methyl-2H-pyrazole-3-carboxylic acid cyclohexylamide]	> 8.00
Cc1cc(C(=O)NC2CCCCC2)n(-c2ccc(OCC3CCCN4CCCCC34)cc2)n1 (centres unmarked) [Example 82, 5-Methyl-2-[4-(octahydroquinolizin-1-ylmethoxy)phenyl]-2H-pyrazole-3-carboxylic acid cyclohexylamide]	< 5.00
Cc1nn(-c2ccc(OCCCN3CCCC3)cc2)c2c1CCCC2 [Example 55, 3-Methyl-1-[4-(3-pyrrolidin-1-yl-propoxy)-phenyl]-4,5,6,7-tetrahydro-1H-indazole]	> 8.00
Cc1cc(C(=O)NC2CCCCC2)nn1-c1ccc(OCCCN2CCCC2)cc1 [Example 83, 5-Methyl-1-[4-(3-pyrrolidin-1-ylpropoxy)phenyl]-1H-pyrazole-3-carboxylic acid cyclohexylamide]	> 8.00
CC(C)c1cc(C(C)C)n(-c2ccc(OC3CCN(C4CCC4)CC3)cc2)n1 [Example 32, 1-Cyclobutyl-4-[4-(3,5-diisopropylpyrazol-1-yl)phenoxy]piperidine]	> 8.00
CN(C)C1CCN(CCCOc2ccc(-n3nc(C(F)(F)F)c4oc5ccccc5c43)cc2)C1 (centres unmarked) [Example 68, Dimethyl-(1-{3-[4-(1-trifluoromethyl-8-oxa-2,3-diaza-cyclopenta[a]inden-3-yl)-phenoxy]-propyl}-pyrrolidin-3-yl)-amine]	> 6.00
CC(C)(C)c1cc(-c2ccccc2)n(-c2ccc(OCCCN3CCCC3)cc2)n1 [Example 42, 3-tert-Butyl-5-phenyl-1-[4-(3-pyrrolidin-1-ylpropoxy)phenyl]-1H-pyrazole]	> 8.00
c1ccc2nn(-c3ccc(OCCCN4CCCC4)cc3)cc2c1 [Example 18, 2-[4-(3-Pyrrolidin-1-ylpropoxy)phenyl]-2H-indazole]	> 7.00
Cc1nn(-c2ccc(OCCCN3CCCC3)cc2)c(C)c1C [Example 36, 3,4,5-Trimethyl-1-[4-(3-pyrrolidin-1-ylpropoxy)phenyl]-1H-pyrazole]	> 8.00
FC(F)(F)c1cc(/C=C/c2ccccc2)n(-c2ccc(OCCCN3CCCC3)cc2)n1 [Example 4, 1-[4-(3-Pyrrolidin-1-ylpropoxy)phenyl]-5-styryl-3-trifluoromethyl-1H-pyrazole]	> 7.00
Cc1cc(C(=O)NC2CCCCC2)n(-c2ccc(OCCC3CCCN3C)cc2)n1 (centres unmarked) [Example 77, 5-Methyl-2-{4-[2-(1-methylpyrrolidin-2-yl)ethoxy]phenyl}-2H-pyrazole-3-carboxylic acid cyclohexylamide]	> 6.00
Cc1cc(CC(C)C)nn1-c1ccc(OCCCN2CCCC2)cc1 [Example 31]	> 8.00
CCc1c(C)nn(-c2ccc(OCCCN3CCCC3)cc2)c1C [Example 37, 4-Ethyl-3,5-dimethyl-1-[4-(3-pyrrolidin-1-ylpropoxy)phenyl]-1H-pyrazole]	> 8.00

Compound	pKi
Cc1cc(C(=O)NC2CCCCC2)n(-c2ccc(OCCCN3CCC[C@H]3C)cc2)n1 [Example 74, 5-Methyl-2-{4-[3-(2R-methylpyrrolidin-1-yl)propoxy]phenyl}-2H-pyrazole-3-carboxylic acid cyclohexylamide]	> 9.00
Cc1c2c(nn1-c1ccc(OCCCN3CCCC3)cc1)CCC2 [Example 58, 3-Methyl-2-[4-(3-pyrrolidin-1-yl-propoxy)-phenyl]-2,4,5,6-tetrahydro-cyclopentapyrazole]	> 7.00
CN(C)C1CCN(CCCOc2ccc(-n3nc(C(F)(F)F)cc3-c3ccccc3)cc2)C1 (centres unmarked) [Example 52, Dimethyl-(1-{3-[4-(5-phenyl-3-trifluoromethyl-pyrazol-1-yl)-phenoxy]-propyl}-pyrrolidin-3-yl)-amine]	> 5.00
Cc1nn(-c2ccc(OCCCN3CCCC3)cc2)c2c1sc1ccccc12 [Example 64, 3-Methyl-1-[4-(3-pyrrolidin-1-yl-propoxy)-phenyl]-1H-benzo[4,5]thieno[3,2-c]pyrazole]	> 8.00
Cc1cc(CO)n(-c2ccc(OCCCN3CCCC3)cc2)n1 [Example 14, {5-Methyl-2-[4-(3-pyrrolidin-1-ylpropoxy)phenyl]-2H-pyrazol-3-yl}methanol]	> 8.00
FC(F)(F)c1cc(-c2cc3ccccc3o2)n(-c2ccc(OCCCN3CCCC3)cc2)n1 [Example 63, 5-Benzofuran-2-yl-1-[4-(3-pyrrolidin-1-ylpropoxy)phenyl]-3-trifluoromethyl-1H-pyrazole]	> 7.00
Cc1cc(OCCCN2CCCCC2)ccc1-n1nc(C(C)C)cc1C(C)C [Example 62, 3,5-Diisopropyl-1-[2-methyl-4-(3-piperidin-1-ylpropoxy)phenyl]-1H-pyrazole]	> 8.00
COc1ccc2c(c1)-c1c(c(C)nn1-c1ccc(OCCCN3CCCC3)cc1)CC2 [Example 7, 8-Methoxy-3-methyl-1-[4-(3-pyrrolidin-1-ylpropoxy)phenyl]-4,5-dihydro-1H-benzo[g]indazole]	> 7.00
3-Methyl-1-[4-(3-piperidin-1-yl-propoxy)-phenyl]-1,4,5,6-tetrahydro-cyclopentapyrazole [Example 59]	> 8.00
Cc1cc(C(=O)NC2CCCCC2)n(-c2ccc(OCCCN3CCCC3)cc2)n1 [Example 73, 5-Methyl-2-[4-(3-pyrrolidin-1-yl-propoxy)-phenyl]-2H-pyrazole-3-carboxylic acid cyclohexylamide]	> 9.00
Cc1nn(-c2ccc(OCCCN3CCC[C@H]3C)cc2)c2c1CCc1ccccc1-2 [Example 2, 3-Methyl-1-{4-[3-(2R-methylpyrrolidin-1-yl)propoxy]phenyl}-4,5-dihydro-1H-benzo[g]indazole]	> 8.00
Cc1nn(-c2ccc(OCCCN3CCCC3)cc2)c2c1CCC2 [Example 57, 3-Methyl-1-[4-(3-pyrrolidin-1-yl-propoxy)-phenyl]-1,4,5,6-tetrahydro-cyclopentapyrazole]	> 8.00
Cc1nn(-c2ccc(OCCCN3CCCC3)cc2)c2c1CCc1ccccc1-2 [Example 1, 3-Methyl-1-[4-(3-pyrrolidin-1-ylpropoxy)phenyl]-4,5-dihydro-1H-benzo[g]indazole]	> 8.00
CCc1cc(CC)n(-c2ccc(OCCCN3CCCC3)cc2)n1 [Example 21, 3,5-Diethyl-1-[4-(3-pyrrolidin-1-ylpropoxy)phenyl]-1H-pyrazole]	> 8.00
Cc1cc(C(C)(C)C)nn1-c1ccc(OCCCN2CCCC2)cc1 [Example 26, 3-tert-Butyl-5-methyl-1-[4-(3-pyrrolidin-1-ylpropoxy)-phenyl]-1H-pyrazole]	> 8.00
CC(C)c1cc(C(C)C)n(-c2ccc(OCCCN3CCCCC3)cc2)n1 [Example 25, 3,5-Diisopropyl-1-[4-(3-piperidin-1-yl-propoxy)-phenyl]-1H-pyrazole]	> 8.00
